# Test results as given in article PMC3936431 (Biomolecules & Therapeutics, 2014).
# How the values were obtained:
# [1] = Stability in stock solutions and plasma samples; type: physicochemical, rabbits; conditions: for stock solution stability, mean %change: room temperature 12 h and 4°C 30 days
# [2] = Pharmacokinetic studies after single intravenous or rectal administration; conditions: for Tmax / AUC(0-inf) / AUC(0-t): New Zealand white, rabbit, in vivo; for AUC(0-inf): AUC0-∞; for AUC(0-inf) / AUC(0-t) / AUC0-∞ / AUC0–30h: rabbits, plasma; for AUC(0-t): AUC0–30h
# [3] = In vitro release, USP paddle method, phosphate buffer pH 7.4; type: physicochemical; conditions: in the first 30 min; paddle 100 rpm, phosphate buffer pH 7.4, 37°C
# [4] = 100 mg/kg, rectal administration (suppository)
# [5] = iv, 50 mg/kg, intravenous administration
# [6] = intravenous administration, 50 mg/kg
# [7] = rectal administration (suppository), 100 mg/kg
smiles,measurement,setting,value
"CC[C@@]1(O)C(=O)OCc2c1cc1n(c2=O)Cc2cc3ccccc3nc2-1 [IS, camptothecin]",stock solution stability,[1]; 4°C for 30 days,stable
same,"stock solution stability, mean %change",[1],< 7.7%
same,stock solution stability,[1]; room temperature for 12 h,stable
"CCc1c2c(nc3ccc(OC(=O)N4CCC(N5CCCCC5)CC4)cc13)-c1cc3c(c(=O)n1C2)COC(=O)[C@]3(O)CC [irinotecan, 7-ethyl-10-[4-(1-piperidino)-1-piperidino]-carbonyloxy-camptothecin]",Tmax,[2]; 100 mg/kg,4 h
same,AUC(0-inf),[2]; [4],41600 ± 7200 ng·h/mL
same,AUC(0-t),[2]; [4],32200 ± 6200 ng·h/mL
same,Tmax,"[2]; iv, 50 mg/kg",0.25 h
same,AUC(0-inf),[2]; [5],82300 ± 9500 ng·h/mL
same,AUC(0-t),[2]; [5],71300 ± 8800 ng·h/mL
same,AUC0-∞,[2]; [6],82330 ± 9470 ng·h/mL
same,AUC0–30h,[2]; [6],71310 ± 8750 ng·h/mL
same,AUC0-∞,[2]; [7],41620 ± 7240 ng·h/mL
same,AUC0–30h,[2]; [7],32150 ± 6150 ng·h/mL
same,drug released,[3],95%
same,stock solution stability,[1]; 4°C for 30 days,stable
same,"stock solution stability, mean %change",[1],< 7.7%
same,stock solution stability,[1]; room temperature for 12 h,stable
